Measurements reported in patent US11365220B2, “Methods of making anti-GP41 antibody-specific capture agents” (California Institute of Technology, priority 2013, dated 2022).

System: 4B3
Settings: stored under N2 at 25° C., 37° C., or 57° C. for 58 days; 10 nM 4B3 spiked in 1% v/v human serum
Description: Small amounts of (iii) were stored under N2 at 25° C., 37° C., or 57° C. for 58 days. […] The remaining samples were lyophilized and used in a single point sandwich ELISA. Streptavidin-coated 96-well plates were saturated with the samples of (iii) recovered from the storage experiments using 1 μM solutions in TBS. The plates were blocked with 5% w/v dry milk in TBS, then incubated with either 1% v/v human serum or 10 nM 4B3 spiked in 1% v/v human serum in 0.5% w/v dry milk in TBS at room temperature for 1 hr. Bound antibody was probed with HPR-conjugated mouse monoclonal antibody to human IgG Fc diluted 1:15,000 in 0.5% w/v dry milk in TBS. The colorimetric assay was developed with TMB substrate, then quenched with 1 M H2SO4 and read at 450 nm.

Substance: Biotin-PEG5-IWCGSGKLICTTA-Pra-(TZ-Az4-eihny-CONH2)-ICTTA-CONH2 [(iii)]
- ELISA performance after storage: no detectable loss of performance
